Reference: US20130142831A1, “COMPOUNDS FOR INFLAMMATION AND IMMUNE-RELATED USES” (Synta Pharmaceuticals Corp., priority 2004, published 2013)

Tested on: IL-2 production
Test: Inhibition of IL-2 production in PHA-activated Jurkat cells
Format: cell-based
Conditions: Homo sapiens, PHA 2.5 μg/mL, 20 hours, bins given in nM
Description: Jurkat cells were placed in a 96 well plate (0.5 million cells per well in 1% FBS medium) then test compounds of this invention were added at different concentrations. After 10 minutes, the cells were activated with PHA (final concentration 2.5 μg/mL) and incubated for 20 hours at 37° C. under CO2. The final volume was 200 μL. Following incubation, the cells were centrifuged and the supernatants collected and stored at −70° C. prior to assaying for IL-2 production. A commercial kit (IL-2 Eli-pair, Diaclone Research, Besancon, France) was used to detect production of IL-2, from which dose response curves were obtained. The IC50 value was calculated as the concentration at which. 50% of maximum IL-2 production after stimulation was inhibited versus a non-stimulation control.

IC50 | Compound
< 100 nM | COc1ccc2c(c1)nc(C(F)(F)F)n2-c1ccc(NC(=O)c2cc(F)c(F)c(F)c2F)cc1 [Compound 71, 2,3,4,5-Tetrafluoro-N-[4-(2-trifluoromethyl-5-methoxy-benzoimidazol-1-yl)-phenyl]-benzamide]
100 to 500 nM | COc1ccc2c(c1)nc(C(F)(F)F)n2-c1ccc(NC(=O)c2ccc(-c3ccccc3)cc2)cc1 [Compound 72, 4-Phenyl-N-[4-(2-trifluoromethyl-5-methoxy-benzoimidazol-1-yl)-phenyl]-benzamide]
100 to 500 nM | COc1ccc2c(c1)nc(C(F)(F)F)n2-c1ccc(NC(=O)c2ccc(I)cc2)cc1 [Compound 73, 4-Iodo-N-[4-(2-trifluoromethyl-5-methoxy-benzoimidazol-1-yl)-phenyl]-benzamide]
100 to 500 nM | COc1ccc2c(c1)nc(C(F)(F)F)n2-c1ccc(NC(=O)c2ccc(C#N)cc2)cc1 [Compound 77, 4-Cyano-N-[4-(2-trifluoromethyl-5-methoxy-benzoimidazol-1-yl)-phenyl]-benzamide]
100 to 500 nM | COc1ccc2c(c1)nc(C(F)(F)F)n2-c1ccc(NC(=O)c2ccc([N+](=O)[O-])cc2)cc1 [Compound 78, 4-Nitro-N-[4-(2-trifluoromethyl-5-methoxy-benzoimidazol-1-yl)-phenyl]-benzamide]
100 to 500 nM | CCc1ccc(C(=O)Nc2ccc(-n3c(C(F)(F)F)nc4cc(OC)ccc43)cc2)cc1 [Compound 79, 4-Ethyl-N-[4-(2-trifluoromethyl-5-methoxy-benzoimidazol-1-yl)-phenyl]-benzamide]
100 to 500 nM | COc1ccc2c(c1)nc(C(F)(F)F)n2-c1ccc(NC(=O)c2ccc(C(F)(F)F)cc2)cc1 [Compound 80, 4-Trifluoromethyl-N-[4-(2-trifluoromethyl-5-methoxy-benzoimidazol-1-yl)-phenyl]-benzamide]
100 to 500 nM | CCCC(=O)Nc1ccc(-n2c(C(F)(F)F)nc3cc(OC)ccc32)cc1 [Compound 82, N-[4-(2-trifluoromethyl-5-methoxy-benzoimidazol-1-yl)-phenyl]-butyramide]
100 to 500 nM | COc1ccc2c(c1)nc(C(F)(F)F)n2-c1ccc(NC(=O)c2cccc3ccccc23)cc1 [Compound 83, Naphthalene-1-carboxylic acid {N-[4-(2-trifluoromethyl-5-methoxy-benzoimidazol-1-yl)-phenyl]} amide]
100 to 500 nM | CCCCC(CC)C(=O)Nc1ccc(-n2c(C(F)(F)F)nc3cc(OC)ccc32)cc1 (stereo not drawn) [Compound 87, 2-Ethyl-N-[4-(2-trifluoromethyl-5-methoxy-benzoimidazol-1-yl)-phenyl]-hexanoic acid amide]
100 to 500 nM | COc1cccc(C(=O)Nc2ccc(-n3c(C(F)(F)F)nc4cc(OC)ccc43)cc2)c1 [Compound 89, 3-Methoxy-N-[4-(2-trifluoromethyl-5-methoxy-benzoimidazol-1-yl)-phenyl]-benzamide]

The next lines start with the compound.

Compound | IC50
COc1ccc2c(c1)nc(C(F)(F)F)n2-c1ccc(NC(=O)c2c(Cl)cc(Cl)cc2Cl)cc1 [Compound 63, 2,4,6-Trichloro-N-[4-(2-trifluoromethyl-5-methoxy-benzoimidazol-1-yl)-phenyl]-benzamide] | 100 to 500 nM
O=C(Nc1ccc(-n2c(C(F)(F)F)nc3cc(C(F)(F)F)ccc32)cc1)c1cccc(F)c1F [Compound 64, 2,3-Difluoro-N-{4-[2,5-di-(trifluoromethyl)-benzoimidazol-1-yl]-phenyl}-benzamide] | 100 to 500 nM
CS(=O)(=O)c1ccc2c(c1)nc(C(F)(F)F)n2-c1ccc(NC(=O)c2cccc(F)c2F)cc1 [Compound 65, 2,3-Difluoro-N-[4-(2-trifluoromethyl-5-methanesulfonyl-benzoimidazol-1-yl)-phenyl]-benzamide] | 100 to 500 nM
CCCCc1ccc(C(=O)Nc2ccc(-n3c(C(F)(F)F)nc4cc(OC)ccc43)cc2)cc1 [Compound 66, 4-Butyl-N-[4-(2-trifluoromethyl-5-methoxy-benzoimidazol-1-yl)-phenyl]-benzamide] | 100 to 500 nM
CC(C)(C)c1cnc(-c2ccc3c(c2)nc(C(F)(F)F)n3-c2ccc(NC(=O)c3ccco3)cc2)o1 [Compound 69, Furan-2-carboxylic acid (N-{4-[2-trifluoromethyl-5-(5-tert-butyl-oxazol-2-yl)-benzoimidazol-1-yl]-phenyl}) amide] | 100 to 500 nM
O=C(Nc1ccc(-c2c(C(F)(F)F)nc3ccccn23)cc1)c1cccc(F)c1F [Compound 70, 2,3-Difluoro-N-[4-(2-trifluoromethyl-imidazo[1,2-a]pyrid-3-yl)-phenyl]-benzamide] | 100 to 500 nM
COc1ccc2c(c1)nc(C(F)(F)F)n2-c1ccc(NC(=O)c2ccc3ccccc3c2)cc1 [Compound 74, Naphthalene-2-carboxylic acid {N-[4-(2-trifluoromethyl-5-methoxy-benzoimidazol-1-yl)-phenyl]} amide] | 100 to 500 nM
COc1ccc2c(c1)nc(C(F)(F)F)n2-c1ccc(NC(=O)c2ccc(C)cc2)cc1 [Compound 76, 4-Methyl-N-[4-(2-trifluoromethyl-5-methoxy-benzoimidazol-1-yl)-phenyl]-benzamide] | 100 to 500 nM
COc1ccc2c(c1)nc(C(F)(F)F)n2-c1ccc(NC(=O)c2cc([N+](=O)[O-])cc([N+](=O)[O-])c2)cc1 [Compound 81, 3,5-Dinitro-N-[4-(2-trifluoromethyl-5-methoxy-benzoimidazol-1-yl)-phenyl]-benzamide] | 100 to 500 nM
COc1ccc2c(c1)nc(C(F)(F)F)n2-c1ccc(NC(=O)C=C(C)C)cc1 [Compound 84, 3-Methyl-N-[4-(2-trifluoromethyl-5-methoxy-benzoimidazol-1-yl)-phenyl]-but-2-enoic acid amide] | 100 to 500 nM
CCCc1ccc(C(=O)Nc2ccc(-n3c(C(F)(F)F)nc4cc(OC)ccc43)cc2)cc1 [Compound 85, 4-Propyl-N-[4-(2-trifluoromethyl-5-methoxy-benzoimidazol-1-yl)-phenyl]-benzamide] | 100 to 500 nM
COc1ccc2c(c1)nc(C(F)(F)F)n2-c1ccc(NC(=O)c2cccs2)cc1 [Compound 86, Thiophene-2-carboxylic acid {N-[4-(2-trifluoromethyl-5-methoxy-benzoimidazol-1-yl)-phenyl]} amide] | 100 to 500 nM
CCCCCCC(=O)Nc1ccc(-n2c(C(F)(F)F)nc3cc(OC)ccc32)cc1 [Compound 88, N-[4-(2-trifluoromethyl-5-methoxy-benzoimidazol-1-yl)-phenyl]-heptanoic acid amide] | 100 to 500 nM
COc1ccc2c(c1)nc(C(F)(F)F)n2-c1ccc(NC(=O)C2CC2c2ccccc2)cc1 (stereo not drawn) [Compound 90, 2-Phenyl-N-[4-(2-trifluoromethyl-5-methoxy-benzoimidazol-1-yl)-phenyl]-cyclopropanecarboxylic acid amide] | 100 to 500 nM

Same assay, conditions: Homo sapiens, PHA 2.5 μg/mL, 20 hours, bins given with μM limit

IC50 | Compound
> 1000 nM | O=S(=O)(Nc1ccc(-n2c(C(F)(F)F)nc3ccccc32)cc1)c1cccc(F)c1F [Compound 52, 2,3-Difluoro-N-[4-(trifluoromethyl-benzoimidazol-1-yl)-phenyl]-benzenesulfonamide]
> 1000 nM | CC(=O)Nc1cc(NC(=O)c2cccc(F)c2F)ccc1-n1c(C(F)(F)F)nc2ccccc21 [Compound 53, 2,3-Difluoro-N-[3-acetylamino-4-(2-trifluoromethyl-benzoimidazol-1-yl)-phenyl]-benzamide]
> 1000 nM | O=C(Nc1ccc(-n2cnc3ccccc32)cc1)c1cccc(F)c1F [Compound 54, 2,3-Difluoro-N-[4-(benzoimidazol-1-yl)-phenyl]-benzamide]
> 1000 nM | Cc1cc(-n2c(C(F)(F)F)nc3ccccc32)ccc1NC(=O)c1cccc(F)c1F [Compound 55, 2,3-Difluoro-N-[2-methyl-4-(2-trifluoromethyl-benzoimidazol-1-yl)-phenyl]-benzamide]
> 1000 nM | O=C(Nc1ccc(-n2c(C(F)(F)F)nc3cc(N4C(=O)c5ccccc5C4=O)ccc32)cc1)c1cccc(F)c1F [Compound 57, 2,3-Difluoro-N-{4-[2-trifluoromethyl-5-(1,3-dioxo-isoindol-2-yl)-benzoimidazol-1-yl]-phenyl}-benzamide]
> 1000 nM | Cc1nnsc1C(=O)Nc1ccc(-n2c(C(F)(F)F)nc3cccnc32)cc1 [Compound 58, 4-Methyl-[1,2,3]thiadiazole-5-carboxylic acid {N-[4-(2-trifluoromethyl-imidazo[4,5-b]pyrid-3-yl)-phenyl]} amide]
> 1000 nM | O=C(Nc1ccc(-n2c(C(F)(F)F)nc3cc(O)c(O)cc32)cc1)c1cccc(F)c1F [Compound 60, 2,3-Difluoro-N-[4-(2-trifluoromethyl-5,6-dihydroxy-benzoimidazol-1-yl)-phenyl]-benzamide]
> 1000 nM | O=C(Nc1ccc(-n2c(C(F)(F)F)nc3cnccc32)cc1)c1cccc(F)c1F [Compound 61, 2,3-Difluoro-N-[4-(2-trifluoromethyl-imidazo[4,5-c]pyrid-1-yl)-phenyl]-benzamide]
> 1000 nM | Cc1nnsc1C(=O)Nc1ccc(-n2c(C(F)(F)F)nc3ccccc32)nc1 [Compound 62, 4-Methyl-[1,2,3]thiadiazole-5-carboxylic acid {N-[2-(2-trifluoromethyl-benzoimidazol-1-yl)-pyrid-5-yl]} amide]

Continued, compound first:

Compound | IC50
CC(C)(C)c1cnc(-c2ccc3c(c2)nc(C(F)(F)F)n3-c2ccc(NC(=O)c3cc(F)ccc3F)cc2)o1 [Compound 67, 2,5-Difluoro-N-{4-[2-trifluoromethyl-5-(5-tert-butyl-oxazol-2-yl)-benzoimidazol-1-yl]-phenyl}-benzamide] | > 1000 nM
CC(C)(C)c1cnc(-c2ccc3c(c2)nc(C(F)(F)F)n3-c2ccc(NC(=O)c3cccc(F)c3F)cc2)o1 [Compound 68, 2,3-Difluoro-N-{4-[2-trifluoromethyl-5-(5-tert-butyl-oxazol-2-yl)-benzoimidazol-1-yl]-phenyl}-benzamide] | > 1000 nM
